Measurements taken from patent US20040002441A1, “Recombination modulators and methods for producing and using the same” (priority 2000, published 2004).
“Also recorded” adds a separate entry of the source. Where no end group is shown, it is not given here.

Key:
[1] = molecular target: T1, E. coli topoisomerase I (type Ia) (Escherichia coli, UniProt P06612); assay: biochemical; details: for IC50: IC50, DNA relaxation (activity reduced by one-half), supercoiled DNA
T1 sequence (P06612 1-865): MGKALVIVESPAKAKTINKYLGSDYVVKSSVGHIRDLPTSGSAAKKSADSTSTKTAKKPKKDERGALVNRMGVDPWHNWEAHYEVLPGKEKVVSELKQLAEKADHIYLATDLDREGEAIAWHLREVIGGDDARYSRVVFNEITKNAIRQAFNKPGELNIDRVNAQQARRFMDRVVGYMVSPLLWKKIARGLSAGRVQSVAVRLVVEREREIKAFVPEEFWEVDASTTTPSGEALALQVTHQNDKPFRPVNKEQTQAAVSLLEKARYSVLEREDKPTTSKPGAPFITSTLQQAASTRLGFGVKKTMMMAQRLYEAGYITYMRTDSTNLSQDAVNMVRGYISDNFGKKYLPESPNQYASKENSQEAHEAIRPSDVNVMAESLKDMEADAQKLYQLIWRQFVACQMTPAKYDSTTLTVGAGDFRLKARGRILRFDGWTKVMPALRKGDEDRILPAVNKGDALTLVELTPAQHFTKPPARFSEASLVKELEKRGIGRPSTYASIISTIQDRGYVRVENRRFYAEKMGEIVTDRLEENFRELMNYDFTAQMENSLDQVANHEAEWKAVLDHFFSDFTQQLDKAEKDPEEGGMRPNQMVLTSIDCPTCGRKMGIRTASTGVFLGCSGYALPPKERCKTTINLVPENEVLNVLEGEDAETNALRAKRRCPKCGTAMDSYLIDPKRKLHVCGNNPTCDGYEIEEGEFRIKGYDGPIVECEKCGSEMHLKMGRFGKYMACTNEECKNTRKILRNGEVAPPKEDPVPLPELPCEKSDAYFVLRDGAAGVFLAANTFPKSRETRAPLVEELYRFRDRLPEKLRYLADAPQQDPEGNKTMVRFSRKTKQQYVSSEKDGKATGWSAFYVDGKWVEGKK
Source text: E. coli topoisomerase I (TopA) exemplifies the type IA topoisomerase family. Type IA enzymes are mechanistically and structurally unrelated to the topoisomerase IB/tyrosine recombinase superfamily of DNA strand transferases.

double-stranded DNA = assay: Peptide binding to DNA (electrophoretic mobility shift)
Source text: Do peptides KWWCRW and KWWWRW inhibit recombination by interfering with the formation of higher order complexes? The formation of intermediates in the bent-L pathway depends on Int contacting two different types of sites, the higher affinity arm sites and the lower affinity core sites flanking the loci of DNA cleavage and strand exchange (FIG. 9). […] To determine the effect of KWWCRW on interactions of Int with its core binding sites, we assembled the recombination complexes, known as intasomes or unimolecular complexes (UMC), on an attL variant substrate with 4 mutations in the IHF binding site, collectively known as QH′. These mutations prevent the specific binding of IHF to the QH′ sequence (Gardner and Nash, 1986), but still allow IHF to bind and bend DNA nonspecifically (Segall et al., 1994). […] We next tested the assembly of bent-L pathway intermediates. At 10 μM peptide, all of the labeled DNA was shifted into the well. However, at lower peptide concentrations that still inhibited recombination (0.1-1 μM), intermediates were assembled normally. In fact, one of the intermediates, the bimolecular complex (BMC), accumulates substantially in the presence of the peptide (see also FIG. 12). […] This agrees perfectly with our observations that suboptimal concentrations of peptide lead to accumulation of Holliday junctions (FIG. 10). […] The peptide shifts att site DNA even in the complete absence of Int (data not shown), confirming that KWWCRW interacts with DNA in a concentration-dependent fashion and in a manner that affects the mobility of the DNA much more drastically than expected for the size of the peptides.
Int Assays. Site-specific recombination and gel mobility shift assays were performed as described (Segall, 1998). Briefly, reactions were performed in a total volume of 10 or 20 μl and typically contained 1-2 nM radiolabeled att site as specified, 4 nM unlabeled att site, 100-300 ng salmon sperm DNA as nonspecific competitor, 44 mM Tris-Ci (pH 8.0), 60 mM KCl, 0.05 mg/ml bovine serum albumin, 7 mM Tris borate (pH 8.9), 5 mM spermidine, 1.3 mM EDTA, and 14.6% v/v glycerol. Any deviation from this formulation is noted in the figure legends. Gel shift reactions were incubated for 90 minutes at 37° C., layered without loading dyes onto 5% native polyacrylamide gel (29 acrylamide: 1 bis-acrylamide) and electrophoresed in 0.5× Tris borate EDTA buffer. Recombination reactions were stopped with 0.2× volume of 2% SDS, layered onto 5% polyacrylamide Tris/SDS gels, and electrophoresed in 1× Tris Tricine SDS buffer at 100 mA (Segall, 1998). Dried gels were visualized and quantitated using a Molecular Dynamics PhosphorImager.

[2] = molecular target: T2, bacteriophage P1 Cre protein (Escherichia phage P1, UniProt P06956); assay: Cre-mediated recombination between two lox site substrates; assay type: biochemical
T2 sequence (P06956 1-343): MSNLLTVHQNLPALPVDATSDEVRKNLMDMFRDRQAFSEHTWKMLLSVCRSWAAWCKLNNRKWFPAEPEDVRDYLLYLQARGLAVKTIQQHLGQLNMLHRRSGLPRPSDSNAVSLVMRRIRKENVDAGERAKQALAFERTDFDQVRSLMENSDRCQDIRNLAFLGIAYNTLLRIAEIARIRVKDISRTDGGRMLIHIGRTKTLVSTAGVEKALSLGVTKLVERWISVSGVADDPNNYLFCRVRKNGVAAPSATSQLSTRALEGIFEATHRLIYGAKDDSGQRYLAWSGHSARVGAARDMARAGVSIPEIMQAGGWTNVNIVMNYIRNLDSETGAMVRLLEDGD
Source text: In order to test the specificity of peptide inhibition, we determined whether peptide KWWCRW affects the activity of a relative of the Int recombinase, namely the bacteriophage P1 Cre protein. Indeed, the peptide inhibits Cre-mediated recombination between two lox site substrates (Cassell and Segall, unpublished results).

Substance	IC50 [1]	binding to DNA (double-stranded DNA)	effect on Cre-mediated recombination [2]	peptide concentration that shifts the mobility of double-stranded DNA (double-stranded DNA; reactions with at least 50 ng salmon sperm DNA)	effect on DNA relaxation ([1]; peptide concentrations up to 42 μM)	accumulation of Holliday junctions in Cre-mediated recombination [2]
KWWWRW-NH2 [Peptide 56, KWWWRW]	7 to 10 µM	appear to bind to DNA	inhibit			
KWWCRW-NH2 [Peptide 59, KWWCRW]	8 µM	appear to bind to DNA; also recorded: binds double stranded DNA by itself	inhibit	≥ 5 µM		
WKHYNY-NH2 [Peptide 52, WKHYNY]		do not bind double-stranded DNA			no effect	does cause accumulation of Holliday junctions
